Results from patent publication EP4268810A1 (priority 2022, dated 2023).
pIC50: −log10 of the molar value. Where two headings read alike, the source gives them in different places.

Experiments:
[1] = tested on: icSARS-CoV-2-mNG
[2] = tested on: icSARS-CoV-2-mNG; details: for Therapeutic range: CC50/IC50, CTG / Therapeutic range: CC50/IC50, IncuCyte / Therapeutic range: CC50/IC50, MTT: human, calu-3 cells
[3] = tested on: DENV type 2 reporter virus
[4] = tested on: Calu-3 cells; details: read-out: CC50 MTT, 72h
[5] = tested on: Huh7.5 cells; details: read-out: CC50 MTT, 72h, 4320 min
[6] = in vitro; details: human, huh7.5 cells, CC50 MTT
[7] = in vitro; details: human, calu-3 cells, CC50 IncuCyte
Description: (§1) Calu-3 (40.000/well), Huh7.5 (10.000/well) and CaCo2 (10.000/well) cells were seeded in 96-well plates in DMEM-Media. The cells were treated with the drug compounds at the indicated concentrations, negative control (non-treated), DMSO control and positive control (50% DMSO treated) were added, and plates were then stored in the IncuCyte® at 37 °C, 5 % CO2 for 72h measuring every 3 hours cell confluency via phase channel with 10x objective. For Analysis IncuCyte® S3 Software was used.
(§2) Plates were then stored in the IncuCyte® measuring every 3 hours cell confluency.

[8] = tested on: icSARS-CoV-2-mNG; test: microbe, parasite or virus in culture; details: Severe acute respiratory syndrome coronavirus 2, Calu-3
[9] = tested on: DENV type 2 reporter virus; test: microbe, parasite or virus in culture; details: Dengue virus
[10] = tested on: Calu-3 cells; details: read-out: CC50 IncuCyte, 72h, cell confluency, 4320 min
Description: as §1, §2

[11] = in vitro; details: human, caco-2
Description: as §1, §2

[12] = tested on: Huh7.5 cells; test: Cell viability via live cell imaging (IncuCyte); details: read-out: CC50 IncuCyte, 72h, cell confluency
Description: as §1, §2

Row | Structure (SMILES) | SARS-CoV-2 infection (infection rate, mNG+/Hoechst+ cells) [1] | toxicity (staining of the nuclei, cell count) [2] | Therapeutic range: CC50/IC50, CTG [2] | Therapeutic range: CC50/IC50, IncuCyte [2] | Therapeutic range: CC50/IC50, MTT [2] | pIC50 [8] | pIC50 ([9]; Huh7.5, 24 h) | further results
1 | [H]/N=C(/N)N/C(=N/[H])NCCc1ccccc1 [Phenformin, phenformin] | inhibited SARS-CoV-2 infection of the cell lines in a dose-dependent manner | without any toxicity | CTG: 1306.4 | IncuCyte: 867.1 | MTT: 876.3 | 5.76 | 4.73 | Therapeutic range: CC50/IC50, CTG ([3]; human, huh7.5 cells): CTG: 109.2; Therapeutic range: CC50/IC50, IncuCyte ([3]; human, huh7.5 cells): IncuCyte: 59.9; Therapeutic range: CC50/IC50, MTT ([3]; human, huh7.5 cells): MTT: 3.3; CC50 [4]: 1520 µM; CC50 [5]: 61.2 µM; CC50 at 72 h [6]: 61 µM; CC50 at 72 h [7]: 1500 µM; pIC50 ([9]; Huh7.5): 4.73
2 | CC(C)Cc1nn(C)c(=O)c2c(SCCCO)n(Cc3cccc4ccccc34)cc12 [SR13800] |  |  |  |  |  |  |  | toxicity (cell viability by Hoechst staining of the nucleus) [1]: toxic
3 | O[C@H]1[C@H](O)[C@@H](O)[C@H](O)[C@@H](O)[C@@H]1O [Scyllo-Inositol] | did not show any activity |  |  |  |  |  |  | 
4 | COc1[nH]c(=O)c(C(=O)C(C)CC(C)C(Cl)CCl)c(O)c1OC (centres unmarked) [Atpenin A5] | inhibited SARS-CoV-2 infection of the cell lines in a dose-dependent manner |  | CTG: 1.72 | IncuCyte: > 320 | MTT: 24 | 6.30 | 6.57 | Therapeutic range: CC50/IC50, CTG ([3]; Dengue Virus in Huh7.5 cells, CC50 by CTG): CTG: 229.5; Therapeutic range: CC50/IC50, IncuCyte ([3]; Dengue Virus in Huh7.5 cells, CC50 by IncuCyte): IncuCyte: 240.7; Therapeutic range: CC50/IC50, MTT ([3]; Dengue Virus in Huh7.5 cells, CC50 by MTT): MTT: 375.2; CC50 [10]: > 80 µM; CC50 at 72 h ([7]; 72h, cell confluency): > 160 µM; CC50 at 72 h [11]: > 60 µM; CC50 [12]: 65 µM
5 | CN(C)C(=N)N=C(N)N [Metformin] |  | without any cytotoxicity |  |  |  | 3.34 |  | 
